Source: patent US20060194815A1, “Methods and compositions for modulating serum cortisol levels” (priority 2003, published 2006)

Tested on: Y1 mouse adrenal tumor cells
Test: dbcAMP-induced 20á-hydroxyprogesterone synthesis in Y1 cells (RIA)
Assay type: cell-based
Experimental: Culture media were then changed and cells were stimulated with 1 mM dbcAMP and the treatment for 24 to 48 hours. […] The synthesis of 20-OH progesterone and progesterone in Y1 and MA-10 cell media respectively were measured by RIA (Brown et al., 1992). H295R human adrenal tumor cells were seeded in 48-well plates at 10^5 cells/well and incubated for 24 hours. […] At the end of the incubation time period, cells were treated with 1 mM dbcAMP for 48 hours. Cortisol levels in the media were determined by radioimmunoassay as previously described (Amri et al., 1996).

In the case of `CC1CN(C(=O)C(Cc2c[nH]c3ccccc23)NC(=O)c2ccc([N+](=O)[O-])cc2)CCN1C(=O)C1CC1` (stereo not drawn) [SP010, N-[2-(4-cyclopropanecarbonyl-3-methyl-piperazin-1-yl)-1-(1H-indol-3-yl-methyl)-2-oxo-ethyl]-4-nitro-benzamide], the “efficacy on Y1 adrenocortical cells across concentrations” value (1, 10 and 100 iM) is reported as “maintained the same efficacy”, the “dbcAMP-induced 20á-hydroxyprogesterone production” value (Y1 cells, 1 mM dbcAMP, increasing concentrations) is reported as “decreased in a dose-dependent manner” and the “potency compared with procaine on cAMP-corticosteroid formation” value (even at a concentration as low as 1 μM) is reported as “as potent as procaine”.
